In patent US20230113037A1 (Bayer Aktiengesellschaft, priority 2019, published 2023) one finds IC50 data, which are given here for 21 compounds.

As a reminder, the IC50 is the point on the concentration scale where inhibition reaches its midpoint.

In assay [1] the target is T1, AHR (Homo sapiens, UniProt P35869).
T1 construct: U87 MG glioblastoma cells (ATCC #HTB-14) endogenously expressing AHR; endogenous in cells; host or cells: U87 MG glioblastoma cells (ATCC #HTB-14)
T1 sequence (P35869 11-848): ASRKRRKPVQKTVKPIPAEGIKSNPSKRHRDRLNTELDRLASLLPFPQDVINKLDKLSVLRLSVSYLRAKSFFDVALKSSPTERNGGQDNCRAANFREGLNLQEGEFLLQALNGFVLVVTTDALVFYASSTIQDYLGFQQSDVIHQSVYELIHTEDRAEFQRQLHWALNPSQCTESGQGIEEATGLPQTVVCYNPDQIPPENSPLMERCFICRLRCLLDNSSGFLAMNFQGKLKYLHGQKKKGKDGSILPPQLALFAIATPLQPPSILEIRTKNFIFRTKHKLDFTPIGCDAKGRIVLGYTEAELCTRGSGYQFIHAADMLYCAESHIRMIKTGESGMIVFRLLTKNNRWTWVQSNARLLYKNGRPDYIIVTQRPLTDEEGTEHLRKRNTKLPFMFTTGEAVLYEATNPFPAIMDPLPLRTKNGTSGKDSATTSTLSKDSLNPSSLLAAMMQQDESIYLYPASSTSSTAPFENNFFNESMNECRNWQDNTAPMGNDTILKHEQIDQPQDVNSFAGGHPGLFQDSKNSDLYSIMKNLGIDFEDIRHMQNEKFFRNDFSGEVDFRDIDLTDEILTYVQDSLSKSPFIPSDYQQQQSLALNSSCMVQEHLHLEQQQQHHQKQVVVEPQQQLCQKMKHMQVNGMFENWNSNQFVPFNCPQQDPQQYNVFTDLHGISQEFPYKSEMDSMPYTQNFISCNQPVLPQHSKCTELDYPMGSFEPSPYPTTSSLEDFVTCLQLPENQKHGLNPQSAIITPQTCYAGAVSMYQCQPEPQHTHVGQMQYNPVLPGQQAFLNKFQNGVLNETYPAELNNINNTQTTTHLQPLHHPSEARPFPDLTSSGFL
Briefly: In vitro assay 1: antagonism in human cell line (AHR transactivation, firefly luciferase reporter, kynurenic acid prestimulated). The settings on record: AHR Antagonism Human IC50 [M]. The format is cell-based. The procedure, abridged: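 Antagonism measured as loss of kynurenic acid-driven firefly luciferase from DRE reporter in stably transfected U87 MG cells; constitutive Renilla signal monitors cytotoxicity. Positive/negative control normalization, staurosporine 5 μM with 150 μM kynurenic acid as inhibition control; replicates given as mean or median.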

Assay [2] has as its target T2, AHR (Mus musculus, UniProt P30561).
T2 sequence (P30561 1-848 P471L/N533S/M589L): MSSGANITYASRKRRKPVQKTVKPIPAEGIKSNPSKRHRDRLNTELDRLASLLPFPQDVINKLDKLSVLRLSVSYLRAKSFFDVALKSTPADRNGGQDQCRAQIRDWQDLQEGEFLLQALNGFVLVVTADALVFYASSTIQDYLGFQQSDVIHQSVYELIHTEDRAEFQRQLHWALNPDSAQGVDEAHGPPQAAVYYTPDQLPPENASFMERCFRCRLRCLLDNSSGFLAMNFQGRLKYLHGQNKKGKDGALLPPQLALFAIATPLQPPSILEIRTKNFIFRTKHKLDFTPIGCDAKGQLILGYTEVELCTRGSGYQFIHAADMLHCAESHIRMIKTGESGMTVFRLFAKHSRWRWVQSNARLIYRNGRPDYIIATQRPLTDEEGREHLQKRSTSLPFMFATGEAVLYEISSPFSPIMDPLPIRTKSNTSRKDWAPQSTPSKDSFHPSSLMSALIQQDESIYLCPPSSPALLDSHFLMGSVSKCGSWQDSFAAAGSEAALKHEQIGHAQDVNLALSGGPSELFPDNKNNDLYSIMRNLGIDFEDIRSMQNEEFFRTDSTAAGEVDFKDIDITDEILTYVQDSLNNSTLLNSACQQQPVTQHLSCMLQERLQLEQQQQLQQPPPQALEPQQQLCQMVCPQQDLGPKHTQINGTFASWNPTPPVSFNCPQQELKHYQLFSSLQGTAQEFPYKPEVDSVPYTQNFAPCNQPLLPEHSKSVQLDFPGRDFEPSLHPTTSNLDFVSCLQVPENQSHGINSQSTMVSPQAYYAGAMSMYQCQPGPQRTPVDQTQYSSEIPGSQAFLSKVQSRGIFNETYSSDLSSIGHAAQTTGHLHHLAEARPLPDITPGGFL
Briefly: In vitro assay 3: antagonism in mouse cell line (AHR transactivation, firefly luciferase reporter, kynurenic acid prestimulated). The settings on record: 200 μM kynurenic acid, 20 hours, read-out: AHR Antagonism Mouse IC50. The format is cell-based. The procedure, abridged: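 Kynurenic acid-prestimulated mouse reporter cells; stable AHR-inducible firefly luc construct with DRE sites in promoter. No-agonist wells = positive inhibition ctrl. Luminescence normalized to pos/neg ctrls; n>1 reported as mean or median.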
On the technique in general: In a reporter assay the amount or activity of a reporter protein is the signal.

[3] abbreviates: Hepa 1c1c7 cells, firefly luciferase reporter.

Where two headings read alike, the source gives them in different places.

As to `CCC[C@@H](Nc1nc2ccccc2c2nc(-c3ccccc3OC(F)F)nn12)C(=O)NC` [Example 477, N^2-{2-[2-(difluoromethoxy)phenyl][1,2,4]triazolo[1,5-c]quinazolin-5-yl}-N-methyl-D-norvalinamide], the IC50 in assay [1] is 1.81e-08 M; in assay [2] (mouse Hepa 1c1c7 cells), 1.44 nM.

Turning to `O=C1NCCCC[C@H]1Nc1nc2ccccc2c2nc(-c3cc(C(F)(F)F)cc(C(F)(F)F)c3)nn12` [Example 359, (3R)-3-({2-[3,5-Bis(trifluoromethyl)phenyl][1,2,4]triazolo[1,5-c]quinazolin-5-yl}amino)azepan-2-one], the values for the IC50 in assay [1] and in assay [2] (mouse Hepa 1c1c7 cells) were more than 2e-05 M and 93.4 nM, respectively.

As to `COc1ccc(-c2nc3c4cccc(C5(C(F)(F)F)CC5)c4nc(N[C@@H]4CCCCNC4=O)n3n2)cc1` [Example 398, (3R)-3-({2-(4-methoxyphenyl)-7-[1-(trifluoromethyl)cyclopropyl][1,2,4]triazolo[1,5-c]quinazolin-5-yl}amino)azepan-2-one], the IC50 in assay [1] is 2.24e-08 M; in assay [2] (mouse Hepa 1c1c7 cells) it was 135 nM.

Regarding `O=C1NCCCC[C@H]1Nc1nc2ccccc2c2nc(-c3ccc(F)cc3OC(F)(F)F)nn12` [Example 516, (3R)-3-({2-[4-fluoro-2-(trifluoromethoxy)phenyl][1,2,4]triazolo[1,5-c]quinazolin-5-yl}amino)azepan-2-one], the IC50 was 4.64e-09 M in assay [1] and 2.18 nM in assay [2] (mouse Hepa 1c1c7 cells).

Consider `COc1cccc(-c2nc3c4ccccc4nc(N[C@@H](C)C(N)=O)n3n2)c1` [Example 81], for which the IC50 was 4.02e-07 M in assay [1] and 287 nM in assay [2] (mouse Hepa 1c1c7 cells).

`COc1ccc(-c2nc3c4cc(C)ccc4nc(N[C@@H]4CCCCNC4=O)n3n2)cc1` [Example 241, (3R)-3-{[2-(4-methoxyphenyl)-9-methyl[1,2,4]triazolo[1,5-c]quinazolin-5-yl]amino}azepan-2-one]: the results for the IC50 in assay [1] and in assay [2] (mouse Hepa 1c1c7 cells) were 1.27e-09 M and 1.93 nM, respectively.

Regarding `COc1cccc(-c2nc3c4ccccc4nc(N[C@H]4CCCCNC4=O)n3n2)c1` [Example 76, (3S)-3-{[2-(3-methoxyphenyl)[1,2,4]triazolo[1,5-c]quinazolin-5-yl]amino}azepan-2-one], the IC50 in assay [1] is 4.82e-08 M; in assay [2] (mouse Hepa 1c1c7 cells), 4.57 nM.

For the compound `COc1ccc(-c2nc3c4cccc(C)c4nc(N[C@@H]4CCCCNC4=O)n3n2)cc1` [Example 143], the results for the IC50 in assay [1] and in assay [2] (mouse Hepa 1c1c7 cells) were 2.42e-10 M and 0.884 nM, respectively.

As to `COc1cccc2c1nc(N[C@@H]1CCCCNC1=O)n1nc(-c3cnn(C)c3)nc21` [Example 752, (3R)-3-{[7-methoxy-2-(1-methyl-1H-pyrazol-4-yl)[1,2,4]triazolo[1,5-c]quinazolin-5-yl]amino}azepan-2-one], the IC50 in assay [1] stood at 2.29e-07 M; in assay [2] (mouse Hepa 1c1c7 cells), 953 nM.

Regarding `Cc1c(-c2nc3c4cccc(F)c4nc(N[C@@H]4CNCCNC4=O)n3n2)cnn1C` [Example 969, (6R)-6-{[2-(1,5-dimethyl-1H-pyrazol-4-yl)-7-fluoro[1,2,4]triazolo[1,5-c]quinazolin-5-yl]amino}-1,4-diazepan-5-one], the values for the IC50 in assay [1] (firefly luciferase reporter) and in assay [2] (setting [3]) were 6.3e-07 M and 298 nM, respectively.

In the case of `O=C1NCCCC[C@@H]1Nc1nc2ccccc2c2nc(-c3ccccc3OC(F)(F)F)nn12` [Example 457, (3S)-3-({2-[2-(trifluoromethoxy)phenyl][1,2,4]triazolo[1,5-c]quinazolin-5-yl}amino)azepan-2-one], the IC50 in assay [1] turned out to be 9.89e-07 M; in assay [2] (mouse Hepa 1c1c7 cells) it was 78.3 nM.

Turning to `CCC[C@@H](Nc1nc2ccccc2c2nc(-c3ccncc3F)nn12)C(=O)NC` [Example 486, N^2-[2-(3-fluoropyridin-4-yl)[1,2,4]triazolo[1,5-c]quinazolin-5-yl]-N-methyl-D-norvalinamide], the IC50 in assay [1] was found to be 3.34e-07 M; in assay [2] (mouse Hepa 1c1c7 cells), 184 nM.

`Cc1nn(C)cc1-c1nc2c3cccc(Br)c3nc(N[C@@H]3CCCCNC3=O)n2n1` [Example 815, (3R)-3-{[7-bromo-2-(1,3-dimethyl-1H-pyrazol-4-yl)[1,2,4]triazolo[1,5-c]quinazolin-5-yl]amino}azepan-2-one]: the results for the IC50 in assay [1] (firefly luciferase reporter) and in assay [2] (setting [3]) were 2.78e-10 M and 1.6 nM, respectively.

`O=C1NCCCC[C@@H]1Nc1nc2ccccc2c2nc(-c3cnccn3)nn12` [Example 695, (3S)-3-{[2-(pyrazin-2-yl)[1,2,4]triazolo[1,5-c]quinazolin-5-yl]amino}azepan-2-one]: the concentration for half-maximal inhibition (IC50) in assay [1] is 2.96e-06 M; in assay [2] (mouse Hepa 1c1c7 cells) it was 2190 nM.

With `COc1ccc(-c2nc3c4c(C5CC5)cccc4nc(N[C@@H]4CCCCNC4=O)n3n2)cc1` [Example 176, (3R)-3-{[10-cyclopropyl-2-(4-methoxyphenyl)[1,2,4]triazolo[1,5-c]quinazolin-5-yl]amino}azepan-2-one], the IC50 stood at 6.81e-09 M in assay [1] and 6.55 nM in assay [2] (mouse Hepa 1c1c7 cells).

In the case of `CCc1nn(C2CC2)cc1-c1nc2c3cccc(C(F)(F)F)c3nc(N[C@@H]3CCCCNC3=O)n2n1` [Example 749, (3R)-3-{[2-(1-cyclopropyl-3-ethyl-1H-pyrazol-4-yl)-7-(trifluoromethyl)[1,2,4]triazolo[1,5-c]quinazolin-5-yl]amino}azepan-2-one], the IC50 in assay [1] is 1.54e-09 M; in assay [2] (mouse Hepa 1c1c7 cells), 2.12 nM.

For `N#Cc1cccc(-c2nc3c4ccccc4nc(N[C@H]4CCCCNC4=O)n3n2)c1` [Example 385, 3-(5-{[(3S)-2-oxoazepan-3-yl]amino}[1,2,4]triazolo[1,5-c]quinazolin-2-yl)benzonitrile], the IC50 in assay [1] came out at 1.97e-06 M; in assay [2] (mouse Hepa 1c1c7 cells) it was 146 nM.

Take `COc1ccc(-c2nc3c4ccccc4nc(N[C@H](C)C(=O)NC(C)C)n3n2)cc1` [Example 391, N^2-[2-(4-Methoxyphenyl)[1,2,4]triazolo[1,5-c]quinazolin-5-yl]-N-propan-2-yl-D-alaninamide]: the IC50 in assay [1] came out at 3.31e-08 M; in assay [2] (mouse Hepa 1c1c7 cells) it was 46.1 nM.

Consider `C[C@@H]1CN(C(=O)[C@@H](C)Nc2nc3c(Br)cccc3c3nc(-c4cnn(C)c4)nn23)CCN1C` [Example 910, (2R)-2-{[7-bromo-2-(1-methyl-1H-pyrazol-4-yl)[1,2,4]triazolo[1,5-c]quinazolin-5-yl]amino}-1-[(3R)-3,4-dimethylpiperazin-1-yl]propan-1-one], for which the IC50 was 2.4e-08 M in assay [1] (firefly luciferase reporter) and 24.7 nM in assay [2] (setting [3]).

On to `O=C1NCCCC[C@H]1Nc1nc2c(C(F)(F)F)cccc2c2nc(-c3ccc(Cl)cc3OC(F)F)nn12` [Example 673, (3R)-3-({2-[4-chloro-2-(difluoromethoxy)phenyl]-7-(trifluoromethyl)[1,2,4]triazolo[1,5-c]quinazolin-5-yl}amino)azepan-2-one], for which the IC50 in assay [1] is more than 2e-05 M; in assay [2] (mouse Hepa 1c1c7 cells), 1.57 nM.

Consider `Cc1ccccc1-c1nc2c3ccccc3nc(NC3CCCNC3=O)n2n1` (single isomer, unassigned) [Example 48, 3-{[2-(2-methylphenyl)[1,2,4]triazolo[1,5-c]quinazolin-5-yl]amino}piperidin-2-one], for which the IC50 in assay [1] was 3.2e-08 M; in assay [2] (mouse Hepa 1c1c7 cells) it was 62 nM.
